Numbers after ± are expanded uncertainties.
Conditions: 343.15 K, Liquid, Vibrating tube method

CCCCCCC(=O)OCC(COC(=O)CCCCCC)(COC(=O)CCCCCC)COC(=O)CCCCCC [pentaerythritol tetraheptanoate]
Conditions	mass density [kg/m3]
4672.9 kPa	944.2 ± 1.2
4676.2 kPa	944.1 ± 1.2
4680 kPa	944.2 ± 1.2
4683.3 kPa	944.1 ± 1.2
4687.3 kPa	944.1 ± 1.2
4690.8 kPa	944.1 ± 1.2
4693.9 kPa	944.2 ± 1.2
4698.2 kPa	944.2 ± 1.2
4701.7 kPa	944.1 ± 1.2
4705 kPa	944.2 ± 1.2
4708.9 kPa	944.2 ± 1.2
4712.2 kPa	944.2 ± 1.2
4715.9 kPa	944.1 ± 1.2
4719.3 kPa	944.1 ± 1.2
4723.7 kPa	944.1 ± 1.2
4726.4 kPa	944.2 ± 1.2
4730.1 kPa	944.2 ± 1.2
4733.2 kPa	944.2 ± 1.2
4737.5 kPa	944.3 ± 1.2
4741 kPa	944.2 ± 1.2
4744.3 kPa	944.2 ± 1.2
4747.7 kPa	944.2 ± 1.2
4752.2 kPa	944 ± 1.2
4755.3 kPa	944.1 ± 1.2
4759 kPa	944.1 ± 1.2
4763.1 kPa	944.1 ± 1.2
4766.6 kPa	944.2 ± 1.2
4770.2 kPa	944.3 ± 1.2
4774.2 kPa	944.2 ± 1.2
4777.7 kPa	944.3 ± 1.2
4781.6 kPa	944.1 ± 1.2
4785.1 kPa	944.2 ± 1.2
4788.7 kPa	944.4 ± 1.2
4792.9 kPa	944.3 ± 1.2
4796.7 kPa	944.2 ± 1.2
4800 kPa	944.2 ± 1.2
4804.5 kPa	944.2 ± 1.2
4807.9 kPa	944.3 ± 1.2
4811.2 kPa	944.2 ± 1.2
4815.9 kPa	944.1 ± 1.2
4819.4 kPa	944.2 ± 1.2
4823.2 kPa	944.2 ± 1.2
4826.8 kPa	944.3 ± 1.2
4831 kPa	944.2 ± 1.2
4834.6 kPa	944.2 ± 1.2
4838.2 kPa	944.2 ± 1.2
4842 kPa	944.1 ± 1.2
4846.4 kPa	944.4 ± 1.2
4849.8 kPa	944.2 ± 1.2
4853.5 kPa	944.2 ± 1.2
4857.8 kPa	944.3 ± 1.2
4861.9 kPa	944.3 ± 1.2
4865.4 kPa	944.3 ± 1.2
4869.2 kPa	944.3 ± 1.2
4872.8 kPa	944.2 ± 1.2
4877.3 kPa	944.3 ± 1.2
4881 kPa	944.3 ± 1.2
4884.8 kPa	944.3 ± 1.2
4889.1 kPa	944.2 ± 1.2
4892.9 kPa	944.2 ± 1.2
4896.6 kPa	944.3 ± 1.2
4901.2 kPa	944.3 ± 1.2
4905 kPa	944.3 ± 1.2
4908.5 kPa	944.2 ± 1.2
4913 kPa	944.2 ± 1.2
4916.8 kPa	944.3 ± 1.2
4920.4 kPa	944.2 ± 1.2
4924.1 kPa	944.3 ± 1.2
4928.6 kPa	944.4 ± 1.2
4932.2 kPa	944.4 ± 1.2
4936 kPa	944.3 ± 1.2
4940.7 kPa	944.3 ± 1.2
4944.5 kPa	944.3 ± 1.2
4948.5 kPa	944.4 ± 1.2
4952.3 kPa	944.3 ± 1.2
4956.8 kPa	944.4 ± 1.2
4960.4 kPa	944.2 ± 1.2
4964.6 kPa	944.3 ± 1.2
4968.4 kPa	944.3 ± 1.2
4972.4 kPa	944.2 ± 1.2
4977 kPa	944.2 ± 1.2
4980.7 kPa	944.5 ± 1.2
4985.5 kPa	944.4 ± 1.2
4989.3 kPa	944.4 ± 1.2
4993.1 kPa	944.3 ± 1.2
4996.9 kPa	944.4 ± 1.2
5001.4 kPa	944.3 ± 1.2
5005.4 kPa	944.4 ± 1.2
5009.1 kPa	944.3 ± 1.2
5014.1 kPa	944.4 ± 1.2
5018.1 kPa	944.4 ± 1.2
5022 kPa	944.4 ± 1.2
5027 kPa	944.4 ± 1.2
5030.1 kPa	944.4 ± 1.2
5035.7 kPa	944.4 ± 1.2
5043.5 kPa	944.3 ± 1.2
5047.3 kPa	944.4 ± 1.2
5051.4 kPa	944.4 ± 1.2
5054.7 kPa	944.3 ± 1.2
5058.5 kPa	944.5 ± 1.2
5065.1 kPa	944.5 ± 1.2
5069.1 kPa	944.4 ± 1.2
5072.9 kPa	944.4 ± 1.2
5077 kPa	944.4 ± 1.2
5080.4 kPa	944.4 ± 1.2
5085.2 kPa	944.4 ± 1.2
5089.2 kPa	944.5 ± 1.2
5093.4 kPa	944.5 ± 1.2
5098.2 kPa	944.4 ± 1.2
5102.2 kPa	944.3 ± 1.2
5105.8 kPa	944.4 ± 1.2
5109.6 kPa	944.5 ± 1.2
